Article PMC10126150 (2023)

Assays:
[1] = system: atp-7 ADS construct (DNA, aptamer) CACCTGGGGGAGTATTGCGGAGGAAGGTTTCTGTCTCTTATACACATCTGACGCTGCCGACGA/TCGTCGGCAGCGTCAGATGTGTATAAGAGACAGTTTTTTTTTTTTTTTTTTTTTTTTTCCGGGGGCTATC; assay: Cy3/quencher fluorescence plate reader, two-site fit; conditions: 120 mM Na+, 5 mM K+, 1 mM Mg2+, 1 mM Ca2+; 20 mM Tris-HCl, 0.01% Tween-20, 25 °C; apparent; lower end of range 12–157, atp-7 stated highest affinity
[2] = system: NNGmin_scr with glu-4 (DNA, other, boronic acid-modified U (Z) at 1,4,15,18,19,22,26,29 of strand 1) TGGTGCGCGCAGGCTCCTTAATGCATAATTTTCTGTCTCTTATACACATCTGACGCTGCCGACG/TCGTCGGCAGCGTCAGATGTGTATAAGAGACAGTTTTTTTTTTTTTTTTTTTTTTTTTACCAGGAGCTTC; assay: Cy3/quencher fluorescence plate reader; conditions: 120 mM Na+, 5 mM K+, 1 mM Mg2+, 1 mM Ca2+; 20 mM Tris-HCl, 25 °C; 20% signal change against 45-50% for glu1-4
[3] = system: NNGmin_scr with glu-3 (DNA, other, boronic acid-modified U (Z) at 1,4,15,18,19,22,26,29 of strand 1) TGGTGCGCGCAGGCTCCTTAATGCATAATTTTCTGTCTCTTATACACATCTGACGCTGCCGACG/TCGTCGGCAGCGTCAGATGTGTATAAGAGACAGTTTTTTTTTTTTTTTTTTTTTTTTTTACCAGGAGCTC; assay: Cy3/quencher fluorescence plate reader; conditions: 120 mM Na+, 5 mM K+, 1 mM Mg2+, 1 mM Ca2+; 20 mM Tris-HCl, 25 °C; 20% signal change against 45-50% for glu1-4
[4] = system: glu-3 ADS construct (DNA, aptamer, boronic acid-modified U (Z, T in the source) at 5,7,8,12,15,19,24,26 of strand 1 (MS of Bio-NNGmin: seven of eight coupled)) CCCGTGTTAGATAGTAAGTGCAATCTCGGCTTTCTGTCTCTTATACACATCTGACGCTGCCGACGA/TCGTCGGCAGCGTCAGATGTGTATAAGAGACAGTTTTTTTTTTTTTTTTTTTTTTTTTTACCAGGAGCTC; assay: Cy3/quencher fluorescence plate reader, single-site fit; conditions: 120 mM Na+, 5 mM K+, 1 mM Mg2+, 1 mM Ca2+; 20 mM Tris-HCl, 0.01% Tween-20, 25 °C; apparent; order of ~0.3 for all four constructs
[5] = system: glu-2 ADS construct (DNA, aptamer, boronic acid-modified U (Z, T in the source) at 5,7,8,12,15,19,24,26 of strand 1 (MS of Bio-NNGmin: seven of eight coupled)) CCCGTGTTAGATAGTAAGTGCAATCTCGGCTTTCTGTCTCTTATACACATCTGACGCTGCCGACGA/TCGTCGGCAGCGTCAGATGTGTATAAGAGACAGTTTTTTTTTTTTTTTTTTTTTTTTTCAGGACAGGCTC; assay: as above; conditions: 120 mM Na+, 5 mM K+, 1 mM Mg2+, 1 mM Ca2+; 20 mM Tris-HCl, 0.01% Tween-20, 25 °C; apparent; order of ~0.3 for all four constructs
[6] = system: glu-1 ADS construct (DNA, aptamer, boronic acid-modified U (Z, T in the source) at 5,7,8,12,15,19,24,26 of strand 1 (MS of Bio-NNGmin: seven of eight coupled)) CCCGTGTTAGATAGTAAGTGCAATCTCGGCTTTCTGTCTCTTATACACATCTGACGCTGCCGACGA/TCGTCGGCAGCGTCAGATGTGTATAAGAGACAGTTTTTTTTTTTTTTTTTTTTTTTTTTAGGGCAGGCTC; assay: as above; conditions: 120 mM Na+, 5 mM K+, 1 mM Mg2+, 1 mM Ca2+; 20 mM Tris-HCl, 0.01% Tween-20, 25 °C; apparent; order of ~0.3 for all four constructs
[7] = system: NNGmin_scr with glu-2 (DNA, other, boronic acid-modified U (Z) at 1,4,15,18,19,22,26,29 of strand 1) TGGTGCGCGCAGGCTCCTTAATGCATAATTTTCTGTCTCTTATACACATCTGACGCTGCCGACG/TCGTCGGCAGCGTCAGATGTGTATAAGAGACAGTTTTTTTTTTTTTTTTTTTTTTTTTCAGGACAGGCTC; assay: Cy3/quencher fluorescence plate reader; conditions: 120 mM Na+, 5 mM K+, 1 mM Mg2+, 1 mM Ca2+; 20 mM Tris-HCl, 25 °C; 20% signal change against 45-50% for glu1-4
[8] = system: NNGmin_scr with glu-1 (DNA, other, boronic acid-modified U (Z) at 1,4,15,18,19,22,26,29 of strand 1) TGGTGCGCGCAGGCTCCTTAATGCATAATTTTCTGTCTCTTATACACATCTGACGCTGCCGACG/TCGTCGGCAGCGTCAGATGTGTATAAGAGACAGTTTTTTTTTTTTTTTTTTTTTTTTTTAGGGCAGGCTC; assay: Cy3/quencher fluorescence plate reader; conditions: 120 mM Na+, 5 mM K+, 1 mM Mg2+, 1 mM Ca2+; 20 mM Tris-HCl, 25 °C; 20% signal change against 45-50% for glu1-4
[9] = system: glu-4 ADS construct (DNA, aptamer, boronic acid-modified U (Z, T in the source) at 5,7,8,12,15,19,24,26 of strand 1 (MS of Bio-NNGmin: seven of eight coupled)) CCCGTGTTAGATAGTAAGTGCAATCTCGGCTTTCTGTCTCTTATACACATCTGACGCTGCCGACGA/TCGTCGGCAGCGTCAGATGTGTATAAGAGACAGTTTTTTTTTTTTTTTTTTTTTTTTTACCAGGAGCTTC; assay: Cy3/quencher fluorescence plate reader, single-site fit; conditions: 120 mM Na+, 5 mM K+, 1 mM Mg2+, 1 mM Ca2+; 20 mM Tris-HCl, 0.01% Tween-20, 25 °C; apparent; order of ~0.3 for all four constructs

Row | KD [1] [µM] | binding [2] | binding [3] | KDeff [4] | KDeff [5] | KDeff [6] | binding [7] | binding [8] | KDeff [9] | Compound
1 | 12 |  |  |  |  |  |  |  |  | Nc1ncnc2c1ncn2[C@@H]1O[C@H](COP(=O)(O)OP(=O)(O)OP(=O)(O)O)[C@@H](O)[C@H]1O
2 |  | weak | weak | ~ 0.3 mM | ~ 0.3 mM | ~ 0.3 mM | weak | weak | ~ 0.3 mM | OC[C@H]1OC(O)[C@H](O)[C@@H](O)[C@@H]1O (stereo partly drawn)
